Where “and” joins values, the source holds several entries; their conditions need not be identical. Equal entries are not always repeated. Entries after “also recorded” stand apart in the source; their conditions may differ.
How the values were obtained:
[1] = test system: normal epidermis and hair follicles; assay: Normal skin exposed to the same schedule and doses of cyclopamine cream; histology, immunohistochemistry and follow-up
Excerpt: (§1) The base cream used is made predominantly of heavy paraffin oil (10% w/w), vaseline (10% w/w), stearyl alcohol (8% w/w), polyoxysteareth-40 (3% w/w) and water (68% w/w), but another suitably formulated base cream is also possible. […] Night-time applications, avoided in this schedule because of possible loss of cream from the patient skin to linens during sleep, can be performed by suitable dermal patches.

[2] = test system: basal cell carcinoma (BCC); conditions: human, in vivo
Protocol: as §1
Every third hour, about 20 μl cream was applied directly onto the lower half and the upper half was left untreated.
The tumor was then followed up without treatment for a study of the possible late effects. […] For example expression of the cell adhesion molecule CD44 is known to increase upon differentiation of the epidermal basal cells to the upper spinous layer cells (Kooy A J et al (1999) Human Pathology 30:1328-1335).

trichoepithelioma = conditions: human, in vivo
Excerpt: (§2) Trichoepithelioma is another tumor associated with genetic changes that cause increased hedgehog-smoothened signalling (Vorechovsky L. et al. (1997) Cancer Res. 57:4677-4681; Nilsson M. et al. (2000) Proc. Natl. Acad. Sci. USA 97:3438-3443).

melanocytic nevi = assay: Cyclopamine cream on mole / melanocytic nevi; assay type: in vivo, human
Excerpt: as §2

CC1=C2C[C@H]3[C@@H](CC=C4C[C@@H](O)CC[C@@]43C)[C@@H]2CC[C@]12O[C@@H]1C[C@H](C)CN[C@H]1[C@H]2C [Cyclopamine]
Appearance of former skin sites of cyclopamine application at long-term follow-up ([1]; followed up more than 31 months): healthy-looking normal skin and hair
Adverse effect on tissues and putative stem cells (histology, cytokeratin 15 and 19, Ber-Ep4) ([1]; normal skin exposed to same schedule and doses as the BCCs): no adverse effect
% of Cells Labelled with Ber-Ep4 [2]: 0 ± 0%
% of Cells showing ≦ 2 Morphological Signs of Apoptosis on H & E Stained Tissue Sections [2]: 20 ± 8% and 18 ± 11%
CD44 labelling of residual tumor cells (differentiation marker) [2]: markedly increased, strong labelling of essentially all residual tumor cells
Clinical regression of BCC [2]: rapid clinical regressions; also recorded: rapid regression; also recorded: largely regressed
Ki-67 antigen expression (proliferation marker) [2]: no longer expressed
Labelling of residual BCC cells with Ulex Europaeus lectin type 1 (differentiation marker) [2]: heterogenous labelling
Clinical regression of trichoepithelioma (trichoepithelioma): rapid regression
Effect on melanocytic nevi (melanocytic nevi; 18 mM cyclopamine cream, another volunteer, data not shown): rapid depigmentation and disappearance
Size and pigmentation of mole near treated tumor (melanocytic nevi; cyclopamine by diffusion from adjacent application area, 24th hour): decreased size and pigmentation
